Patent US11993599B2, “Therapeutic compounds” (Genentech, Inc., priority 2021, dated 2024)

What was measured:
BRM = BRM (Homo sapiens, UniProt P51531); experiment: Immunofluorescence assay for BRM degradation in SW1573 cells; type: cell-based; parameters: treated overnight at 4° C. with either BRM primary antibody (Cell signaling Cat #11966) or BRG primary antibody; endogenous in cells; host or cells: SW1573; settings: 20 hours incubation; for DC50: immunofluorescence mean nuclear signal, read-out: BRM IF Degradation IC50; for BRM IF Degradation Sinf (%): normalized to a known degrader control
Method in brief: (§1)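 After a 20 h incubation with test compound, SW1573 cells are fixed and stained for BRM or BRG1 plus Hoechst. Per-cell mean nuclear intensity, referenced to a degrader control, is fit concentration-dependently with unconstrained maximum for Dmax.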

BRG1 = molecular target: T1, BRG1 (Homo sapiens, UniProt P51532); experiment: Immunofluorescence assay for BRG1 degradation in SW1573 cells; type: cell-based; settings: 20 hours incubation; for DC50: immunofluorescence mean nuclear signal, read-out: BRG1 IF Degradation IC50; for Dmax: SW1573, 20 h, normalized to a known degrader control, read-out: BRG1 IF Degradation Sinf (%)
T1 construct: either BRM primary antibody (Cell signaling Cat #11966) or BRG primary antibody (Abcam, ab 110641); endogenous in cells; host or cells: SW1573
Method in brief: as §1

Sequence of BRM (P51531 whole entry): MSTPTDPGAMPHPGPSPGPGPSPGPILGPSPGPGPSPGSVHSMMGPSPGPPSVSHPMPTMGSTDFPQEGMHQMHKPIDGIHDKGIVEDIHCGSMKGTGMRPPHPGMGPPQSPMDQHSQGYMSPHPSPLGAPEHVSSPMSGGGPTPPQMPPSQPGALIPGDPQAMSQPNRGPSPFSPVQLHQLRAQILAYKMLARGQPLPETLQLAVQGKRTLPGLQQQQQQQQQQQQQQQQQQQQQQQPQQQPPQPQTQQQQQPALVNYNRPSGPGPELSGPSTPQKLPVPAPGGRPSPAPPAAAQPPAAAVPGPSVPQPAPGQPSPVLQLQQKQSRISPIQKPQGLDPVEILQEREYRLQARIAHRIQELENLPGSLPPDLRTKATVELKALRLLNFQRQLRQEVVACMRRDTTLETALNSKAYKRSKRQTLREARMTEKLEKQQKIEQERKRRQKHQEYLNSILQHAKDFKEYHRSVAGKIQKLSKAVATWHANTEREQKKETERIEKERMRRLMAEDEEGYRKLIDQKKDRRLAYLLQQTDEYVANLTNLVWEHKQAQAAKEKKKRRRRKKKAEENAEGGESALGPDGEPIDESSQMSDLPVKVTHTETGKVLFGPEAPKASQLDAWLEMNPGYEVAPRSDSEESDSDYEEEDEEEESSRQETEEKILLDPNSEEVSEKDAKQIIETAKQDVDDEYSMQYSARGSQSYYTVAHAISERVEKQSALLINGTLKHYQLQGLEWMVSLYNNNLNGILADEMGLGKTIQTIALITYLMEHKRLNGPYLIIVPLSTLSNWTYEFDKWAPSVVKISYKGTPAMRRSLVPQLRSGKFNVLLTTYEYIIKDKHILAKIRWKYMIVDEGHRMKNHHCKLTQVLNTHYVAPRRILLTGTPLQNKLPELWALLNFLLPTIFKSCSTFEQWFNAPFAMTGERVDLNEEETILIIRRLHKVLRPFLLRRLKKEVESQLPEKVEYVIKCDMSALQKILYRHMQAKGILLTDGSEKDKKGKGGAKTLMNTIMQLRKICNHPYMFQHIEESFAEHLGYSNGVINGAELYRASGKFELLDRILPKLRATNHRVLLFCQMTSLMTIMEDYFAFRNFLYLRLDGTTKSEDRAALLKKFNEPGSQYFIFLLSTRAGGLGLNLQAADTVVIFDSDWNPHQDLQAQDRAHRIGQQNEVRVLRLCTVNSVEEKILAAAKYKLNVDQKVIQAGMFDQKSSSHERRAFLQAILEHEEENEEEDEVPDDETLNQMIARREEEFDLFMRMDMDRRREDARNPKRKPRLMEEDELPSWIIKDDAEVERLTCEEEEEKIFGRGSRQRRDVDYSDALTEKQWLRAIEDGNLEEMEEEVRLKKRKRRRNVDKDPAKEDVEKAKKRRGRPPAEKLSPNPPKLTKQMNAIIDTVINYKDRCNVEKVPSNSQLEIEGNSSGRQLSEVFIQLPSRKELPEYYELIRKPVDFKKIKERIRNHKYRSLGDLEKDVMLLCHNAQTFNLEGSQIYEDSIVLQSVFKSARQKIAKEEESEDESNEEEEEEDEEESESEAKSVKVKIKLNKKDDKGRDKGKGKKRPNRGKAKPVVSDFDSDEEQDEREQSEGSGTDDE
T1 sequence (P51532 whole entry): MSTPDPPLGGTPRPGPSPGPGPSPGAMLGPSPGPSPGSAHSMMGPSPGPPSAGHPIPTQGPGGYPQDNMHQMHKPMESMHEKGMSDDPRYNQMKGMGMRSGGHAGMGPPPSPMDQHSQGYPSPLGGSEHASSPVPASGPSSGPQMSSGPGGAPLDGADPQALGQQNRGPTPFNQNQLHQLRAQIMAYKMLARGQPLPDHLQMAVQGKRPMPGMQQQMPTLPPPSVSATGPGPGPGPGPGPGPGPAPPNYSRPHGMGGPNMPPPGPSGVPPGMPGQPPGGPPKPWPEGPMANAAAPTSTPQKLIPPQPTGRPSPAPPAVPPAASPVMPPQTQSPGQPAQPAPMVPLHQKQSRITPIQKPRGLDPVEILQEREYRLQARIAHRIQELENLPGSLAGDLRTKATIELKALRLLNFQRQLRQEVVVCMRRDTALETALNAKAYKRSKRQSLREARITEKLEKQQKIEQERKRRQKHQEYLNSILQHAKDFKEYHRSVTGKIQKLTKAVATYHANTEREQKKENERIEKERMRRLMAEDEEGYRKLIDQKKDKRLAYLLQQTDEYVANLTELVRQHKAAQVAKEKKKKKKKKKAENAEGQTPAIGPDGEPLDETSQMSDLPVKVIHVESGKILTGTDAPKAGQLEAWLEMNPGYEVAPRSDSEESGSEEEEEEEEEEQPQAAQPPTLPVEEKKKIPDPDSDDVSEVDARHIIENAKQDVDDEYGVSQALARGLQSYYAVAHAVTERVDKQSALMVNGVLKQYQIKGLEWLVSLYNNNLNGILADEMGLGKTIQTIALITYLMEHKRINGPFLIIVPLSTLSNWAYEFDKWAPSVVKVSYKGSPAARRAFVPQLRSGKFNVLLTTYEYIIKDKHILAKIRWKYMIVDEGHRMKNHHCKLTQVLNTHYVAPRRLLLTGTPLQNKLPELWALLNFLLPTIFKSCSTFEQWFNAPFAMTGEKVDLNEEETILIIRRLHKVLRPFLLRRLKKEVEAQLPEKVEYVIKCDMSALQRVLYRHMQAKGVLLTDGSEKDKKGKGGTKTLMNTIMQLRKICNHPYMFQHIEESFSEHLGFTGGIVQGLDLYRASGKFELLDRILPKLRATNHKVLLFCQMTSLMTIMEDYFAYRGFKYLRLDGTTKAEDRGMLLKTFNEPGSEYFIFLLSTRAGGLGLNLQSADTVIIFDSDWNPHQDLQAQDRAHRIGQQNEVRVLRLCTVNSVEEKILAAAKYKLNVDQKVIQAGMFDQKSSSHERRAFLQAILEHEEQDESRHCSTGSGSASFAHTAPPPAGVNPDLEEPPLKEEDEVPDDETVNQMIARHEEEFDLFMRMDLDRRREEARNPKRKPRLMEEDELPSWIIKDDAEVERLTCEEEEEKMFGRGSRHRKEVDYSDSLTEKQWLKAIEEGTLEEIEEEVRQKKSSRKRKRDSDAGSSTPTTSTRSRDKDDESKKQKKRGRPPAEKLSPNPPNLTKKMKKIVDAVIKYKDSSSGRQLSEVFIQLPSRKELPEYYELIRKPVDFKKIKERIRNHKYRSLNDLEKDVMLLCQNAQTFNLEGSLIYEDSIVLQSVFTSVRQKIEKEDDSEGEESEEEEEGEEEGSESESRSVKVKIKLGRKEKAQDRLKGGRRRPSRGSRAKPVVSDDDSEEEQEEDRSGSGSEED

Row | SMILES | DC50 (BRM) [nM] | BRM IF Degradation Sinf (%) (BRM) | DC50 (BRG1) [nM] | Dmax (BRG1) [%]
1 | Nc1nnc(-c2ccccc2O)cc1N1CC2CCC(C1)N2c1ccnc(C#CCN2CC3CC2CC3(F)F)c1 (centres unmarked) [Compound 143, 2-[6-amino-5-[8-[2-[3-(5,5-difluoro-2-azabicyclo[2.2.1]heptan-2-yl)prop-1-ynyl]-4-pyridyl]-3,8-diazabicyclo[3.2.1]octan-3-yl]pyridazin-3-yl]phenol] | < 10 | E (E indicates −30%-−70%) | < 10 | 0 to 30
2 | Nc1nnc(-c2ccccc2O)cc1N1CC2CCC(C1)N2c1ccnc(C#CCN2CCOC(CF)C2)c1 (centres unmarked) [Compound 114, 2-[6-amino-5-[8-[2-[3-[2-(fluoromethyl)morpholin-4-yl]prop-1-ynyl]-4-pyridyl]-3,8-diazabicyclo[3.2.1]octan-3-yl]pyridazin-3-yl]phenol] | 10 to 100 | E (E indicates −30%-−70%) | > 100 | –
3 | Nc1nnc(-c2ccccc2O)cc1N1CC2CCC(C1)N2c1ccnc(C#CCN2CCC(F)(F)C2)c1 [Compound 43, 2-[6-amino-5-[8-[2-[3-(3,3-difluoropyrrolidin-1-yl)prop-1-ynyl]-4-pyridyl]-3,8-diazabicyclo[3.2.1]octan-3-yl]pyridazin-3-yl]phenol] | 10 to 100 | E (E indicates −30%-−70%) | < 10 | 0 to 30
4 | CC1(O)CCCN(CC#Cc2cc(N3C4CCC3CN(c3cc(-c5ccccc5O)nnc3N)C4)ccn2)CC1 (centres unmarked) [Compound 244, 1-[3-[4-[3-[3-amino-6-(2-hydroxyphenyl)pyridazin-4-yl]-3,8-diazabicyclo[3.2.1]octan-8-yl]-2-pyridyl]prop-2-ynyl]-4-methyl-azepan-4-ol] | 10 to 100 | E (E indicates −30%-−70%) | < 10 | 30 to 70
5 | Nc1nnc(-c2ccccc2O)cc1N1CC2CCC(C1)N2c1ccnc(C#CCN2CCCCC23CC3)c1 [Compound 153, 2-[6-amino-5-[8-[2-[3-(4-azaspiro[2.5]octan-4-yl)prop-1-ynyl]-4-pyridyl]-3,8-diazabicyclo[3.2.1]octan-3-yl]pyridazin-3-yl]phenol] | < 10 | E (E indicates −30%-−70%) | < 10 | 0 to 30
6 | Nc1nnc(-c2ccccc2O)cc1N1CC2CCC(C1)N2c1ccnc(C#CCN2CCC(F)C2)c1 (centres unmarked) [Compound 133, 2-[6-amino-5-[8-[2-[3-(3-fluoropyrrolidin-1-yl)prop-1-ynyl]-4-pyridyl]-3,8-diazabicyclo[3.2.1]octan-3-yl]pyridazin-3-yl]phenol] | < 10 | E (E indicates −30%-−70%) | < 10 | 0 to 30
7 | Nc1nnc(-c2ccccc2O)cc1N1CC2CCC(C1)N2c1ccnc(C#CCN2CCN3CCCC3C2)c1 (centres unmarked) [Compound 67, 2-[5-[8-[2-[3-(3,4,6,7,8,8a-hexahydro-1H-pyrrolo[1,2-a]pyrazin-2-yl)prop-1-ynyl]-4-pyridyl]-3,8-diazabicyclo[3.2.1]octan-3-yl]-6-amino-pyridazin-3-yl]phenol] | 10 to 100 | E (E indicates −30%-−70%) | < 10 | 0 to 30
8 | COCC1CCCCN1CC#Cc1cc(N2C3CCC2CN(c2cc(-c4ccccc4O)nnc2N)C3)ccn1 (centres unmarked) [Compound 41, 2-[6-amino-5-[8-[2-[3-[2-(methoxymethyl)-1-piperidyl]prop-1-ynyl]-4-pyridyl]-3,8-diazabicyclo[3.2.1]octan-3-yl]pyridazin-3-yl]phenol] | 10 to 100 | E (E indicates −30%-−70%) | 10 to 100 | 30 to 70
9 | Nc1nnc(-c2ccccc2O)cc1N1CC2CCC(C1)N2c1ccnc(C#CCN2CCC[C@]23CCNC3)c1 [Compound 165, 2-[6-amino-5-[8-[2-[3-[(5R)-1,7-diazaspiro[4.4]nonan-1-yl]prop-1-ynyl]-4-pyridyl]-3,8-diazabicyclo[3.2.1]octan-3-yl]pyridazin-3-yl]phenol] | > 100 | E (E indicates −30%-−70%) | > 100 | –
10 | Nc1nnc(-c2ccccc2O)cc1N1CCC2(CCN(c3ccnc(C#CCN4CCCCCC4)c3)C2)CC1 [Compound 250, 2-(6-amino-5-(2-(2-(3-(azepan-1-yl)prop-1-yn-1-yl)pyridin-4-yl)-2,8-diazaspiro[4.5]decan-8-yl)pyridazin-3-yl)phenol] | < 10 | E (E indicates −30%-−70%) | 10 to 100 | 30 to 70
11 | Nc1nnc(-c2ccccc2O)cc1N1CC2CCC(C1)N2c1ccnc(C#CCN2C[C@H]3CC[C@@H]2C3)c1 [Compound 115, 2-[6-amino-5-[8-[2-[3-[(1R,4S)-2-azabicyclo[2.2.1]heptan-2-yl]prop-1-ynyl]-4-pyridyl]-3,8-diazabicyclo[3.2.1]octan-3-yl]pyridazin-3-yl]phenol] | < 10 | E (E indicates −30%-−70%) | < 10 | 30 to 70
12 | Nc1nnc(-c2ccccc2O)cc1N1CC2CCC(C1)N2c1ccnc(C#CCN2CCCC(CO)C2)c1 (centres unmarked) [Compound 134, 2-[6-amino-5-[8-[2-[3-[3-(hydroxymethyl)-1-piperidyl]prop-1-ynyl]-4-pyridyl]-3,8-diazabicyclo[3.2.1]octan-3-yl]pyridazin-3-yl]phenol] | 10 to 100 | E (E indicates −30%-−70%) | 10 to 100 | 30 to 70
13 | Nc1nnc(-c2ccccc2O)cc1N1CC2CCC(C1)N2c1ccnc(C#CCN2CC3COC(C3)C2)c1 (centres unmarked) [Compound 98, 2-[6-amino-5-[8-[2-[3-(6-oxa-3-azabicyclo[3.2.1]octan-3-yl)prop-1-ynyl]-4-pyridyl]-3,8-diazabicyclo[3.2.1]octan-3-yl]pyridazin-3-yl]phenol] | 10 to 100 | E (E indicates −30%-−70%) | > 100 | –
14 | CS(=O)(=O)N1CCC2(CN(CC#Cc3cc(N4C5CCC4CN(c4cc(-c6ccccc6O)nnc4N)C5)ccn3)C2)C1 [Compound 236, 2-[6-amino-5-[8-[2-[3-(7-methylsulfonyl-2,7-diazaspiro[3.4]octan-2-yl)prop-1-ynyl]-4-pyridyl]-3,8-diazabicyclo[3.2.1]octan-3-yl]pyridazin-3-yl]phenol] | > 100 | F (F indicates −71%-−120%) | 10 to 100 | 0 to 30
15 | Nc1nnc(-c2ccccc2O)cc1N1CC2CCC(C1)N2c1ccnc(C#CCN2C[C@H]3OCC[C@H]32)c1 [Compound 161, 2-[6-amino-5-[8-[2-[3-[(1R,5R)-2-oxa-6-azabicyclo[3.2.0]heptan-6-yl]prop-1-ynyl]-4-pyridyl]-3,8-diazabicyclo[3.2.1]octan-3-yl]pyridazin-3-yl]phenol] | < 10 | E (E indicates −30%-−70%) | 10 to 100 | 30 to 70
16 | Nc1nnc(-c2ccccc2O)cc1N1CC2CCC(C1)N2c1ccnc(C#CCN2CC3(C2)C(CF)CCS3(=O)=O)c1 (centres unmarked) [Compound 177, 2-[6-amino-5-[8-[2-[3-[8-(fluoromethyl)-5,5-dioxo-5lambda6-thia-2-azaspiro[3.4]octan-2-yl]prop-1-ynyl]-4-pyridyl]-3,8-diazabicyclo[3.2.1]octan-3-yl]pyridazin-3-yl]phenol] | 10 to 100 | E (E indicates −30%-−70%) | 10 to 100 | 30 to 70
17 | Nc1nnc(-c2ccccc2O)cc1N1CC2CCC(C1)N2c1ccnc(C#CCN2CCCC23CCC3)c1 [Compound 106, 2-[6-amino-5-[8-[2-[3-(5-azaspiro[3.4]octan-5-yl)prop-1-ynyl]-4-pyridyl]-3,8-diazabicyclo[3.2.1]octan-3-yl]pyridazin-3-yl]phenol] | < 10 | E (E indicates −30%-−70%) | < 10 | 30 to 70
18 | Nc1nnc(-c2ccccc2O)cc1N1CC2CCC(C1)N2c1ccnc(C#CCN2CCCCC2CO)c1 (centres unmarked) [Compound 55, 2-[6-amino-5-[8-[2-[3-[2-(hydroxymethyl)-1-piperidyl]prop-1-ynyl]-4-pyridyl]-3,8-diazabicyclo[3.2.1]octan-3-yl]pyridazin-3-yl]phenol] | 10 to 100 | E (E indicates −30%-−70%) | 10 to 100 | 30 to 70
19 | Nc1nnc(-c2ccccc2O)cc1N1CC2CCC(C1)N2c1ccnc(C#CCN2CCCC3(CC3)C2)c1 [Compound 99, 2-[6-amino-5-[8-[2-[3-(5-azaspiro[2.5]octan-5-yl)prop-1-ynyl]-4-pyridyl]-3,8-diazabicyclo[3.2.1]octan-3-yl]pyridazin-3-yl]phenol] | < 10 | E (E indicates −30%-−70%) | < 10 | 30 to 70
20 | CC1CCCN(CC#Cc2cc(N3C4CCC3CN(c3cc(-c5ccccc5O)nnc3N)C4)ccn2)CC1C (centres unmarked) [Compound 195, 2-[6-amino-5-[8-[2-[3-(3,4-dimethylazepan-1-yl)prop-1-ynyl]-4-pyridyl]-3,8-diazabicyclo[3.2.1]octan-3-yl]pyridazin-3-yl]phenol] | < 10 | F (F indicates −71%-−120%) | < 10 | 30 to 70
